Experimental data as given in patent US20260206757A1, “METHODS OF CONTROLLING UNDESIRABLE PLANTS WITH PPO HERBICIDES AND COMBINATIONS IN HERBICIDE TOLERANT CROP PLANTS” (BASF AGRO B.V., priority 2022, published 2026).

Columns and labels:
Assay type in all cases: in vivo
[1] = system: Amaranthus palmeri; assay: Field experiment, pre-emergence herbicidal activity on bare ground; settings: AMAPA, Preem, Saflufenacil 25, Flumioxazin 71.4 g ai/ha
Description: (§1) Trial Objective: Efficacy of Saflufenacil in tank mix with Flumioxazin applied in pre-emergence of the weeds on bare ground.
(§2) On field test sites, natural weed infestation was treated, pre-emergence of the weeds on bare soil or post-emergence of the weeds.
(§3) For the pre-emergence treatment, the active compounds, suspended or emulsified in water, were applied by means of finely distributing nozzles on bare ground.
(§4) In the following experiments, the herbicidal activity for the individual herbicidal compositions (solo and mixture applications) was assessed up to 36 days after treatment (DAT). The assessments for the damage on undesired weeds caused by the chemical compositions was carried out using a scale from 0 to 100%, compared to the untreated control plants. Here, 0 means no damage and 100 means complete destruction of the plants.
(§5) [formula] • where X=effect in percent using herbicide (A) at an application rate a; • Y=effect in percent using herbicide (B) at an application rate b; • E=expected effect (in %) of herbicide (A)+herbicide (B) at application rates a+b.
(§6) The value E corresponds to the effect (plant damage or injury) which is to be expected if the activity of the individual compounds is additive. If the observed effect is higher than the value E calculated according to the Colby equation, a synergistic effect is present.

[2] = system: Ambrosia trifida; assay: as above; settings: AMBTR, Preem, Saflufenacil 50, Flumioxazin 71.4 g ai/ha
Description: as §1, §2, §3, §4, §5, §6

[3] = system: Digitaria sanguinalis; assay: as above; settings: DIGSA, Preem, Saflufenacil 25, Flumioxazin 71.4 g ai/ha
Description: as §1, §2, §3, §4, §5, §6

[4] = system: Setaria faberi; assay: as above; settings: SETFA, Preem, Saflufenacil 50, Flumioxazin 71.4 g ai/ha
Description: as §1, §2, §3, §4, §5, §6

[5] = system: Eleusine indica; assay: as above; settings: ELEIN
Description: as §1
(§7) Trial Objective: Efficacy of Saflufenacil in tank mix with Sulfentrazone applied in pre-emergence of the weeds on bare ground.
as §2, §3, §4, §5, §6

[6] = system: Urochloa texana; assay: as above; settings: PANTE
Description: as §1, §7, §2, §3, §4, §5, §6

[7] = system: Abutilon theophrasti; assay: Greenhouse experiment, post emergence herbicidal activity; settings: ABUTH
Description: (§8) For the post emergence treatment, the plants were first grown to the 2 to 4 leaf stage (GS 12/14). The plants were cultivated due to their individual requirements at 10-25° C. and 20-35° C. The plants were irrigated as required.
(§9) Here, the herbicidal compositions were suspended or emulsified in water as distribution medium and sprayed using finely distributing nozzles. 1% methylated seed oil (MSO) has been added as adjuvant to each of the solo and mixture treatments.
(§10) In the greenhouse experiments, the herbicidal activity for the individual herbicidal compositions (solo and mixture applications) was assessed 20/21 days after treatment (DAT).
(§11) The evaluation for the damage on undesired weeds caused by the chemical compositions was carried out using a scale from 0 to 100%, compared to the untreated control plants. Here, 0 means no damage and 100 means complete destruction of the plants.

[8] = system: Ambrosia artemisiifolia; assay: as above; settings: AMBEL
Description: as §8, §9, §10, §11

[9] = system: Chenopodium album; assay: as above; settings: CHEAL
Description: as §8, §9, §10, §11

[10] = system: Convolvulus arvensis; assay: as above; settings: CONAR
Description: as §8, §9, §10, §11

[11] = system: Echinochloa crus-galli; assay: as above; settings: ECHCG
Description: as §8, §9, §10, §11

[12] = system: Erigeron canadensis; assay: as above; settings: ERICA
Description: as §8, §9, §10, §11

[13] = system: Hibiscus trionum; assay: as above; settings: HIBTR
Description: as §8, §9, §10, §11

[14] = system: Matricaria chamomilla; assay: as above; settings: MATCH
Description: as §8, §9, §10, §11

[15] = system: Mercuralis annua; assay: as above; settings: MERAN
Description: as §8, §9, §10, §11

[16] = system: Papaver rhoeas; assay: as above; settings: PAPRH
Description: as §8, §9, §10, §11

[17] = system: Polygonum aviculare; assay: as above; settings: POLAV
Description: as §8, §9, §10, §11

[18] = system: Portulaca oleracea; assay: as above; settings: POROL, BBCH 12-14, Flumioxazin 4, Bifenox 168 g ai/ha
Description: as §8, §9, §10, §11

[19] = system: Setaria viridis; assay: as above; settings: SETVI
Description: as §8, §9, §10, §11

[20] = system: Solanum nigrum; assay: as above; settings: SOLNI, BBCH 12-14, Flumioxazin 1, Fomesafen 123 g ai/ha
Description: as §8, §9, §10, §11

[21] = system: Sonchus arvensis; assay: as above; settings: SONAR
Description: as §8, §9, §10, §11

[22] = system: Sorghum halepense; assay: as above; settings: SORHA
Description: as §8, §9, §10, §11

[23] = Preem, Saflufenacil 25, Flumioxazin 71.4 g ai/ha
[24] = Preem, Saflufenacil 50, Flumioxazin 71.4 g ai/ha
[25] = BBCH 12-14, Flumioxazin 2, Fomesafen 123 g ai/ha
[26] = BBCH 12-14, Flumioxazin 0.5, Halauxifen 1 g ai/ha
[27] = BBCH 12-14, Saflufenacil 1, Flumioxazin 2 g ai/ha
[28] = BBCH 12-14, Flumioxazin 0.5, Imazamox 10 g ai/ha
[29] = BBCH 12-14, Saflufenacil 0.5, Flumioxazin 2 g ai/ha
[30] = BBCH 12-14, Flumioxazin 2, Halauxifen 1 g ai/ha
[31] = BBCH 12-14, Flumioxazin 0.5, Bifenox 168 g ai/ha
[32] = BBCH 12-14, Flumioxazin 2, Tribenuron-methyl 6 g ai/ha
[33] = BBCH 12-14, Flumioxazin 0.5, Pyraflufen-ethyl 1.5 g ai/ha
[34] = BBCH 12-14, Saflufenacil 4, Flumioxazin 2 g ai/ha
[35] = preemergence, Saflufenacil 25, Sulfentrazone 210 g ai/ha
[36] = BBCH 12-14, Saflufenacil 1, Bifenox 168 g ai/ha
[37] = BBCH 12-14, Saflufenacil 1, Imazamox 10 g ai/ha
[38] = BBCH 12-14, Saflufenacil 0.5, Clethodim 30 g ai/ha
[39] = BBCH 12-14, Saflufenacil 0.5, Bifenox 168 g ai/ha

## C#CCN1C(=O)COc2cc(F)c(N3C(=O)C4=C(CCCC4)C3=O)cc21 [Flumioxazin, 2-[7-fluoro-3,4-dihydro-3-oxo-4-(2-propyn-1-yl)-2H-1,4-benzoxazin-6-yl]-4,5,6,7-tetrahydro-1H-isoindole-1,3 (2H)-dione]
[1]
  % Herbicidal activity: 85%
[2]
  % Herbicidal activity: 65%
[3]
  % Herbicidal activity: 88%
[4]
  % Herbicidal activity: 72%
[5]; [23]
  % Herbicidal activity: 80%
[6]; [24]
  % Herbicidal activity: 35%
[7]; BBCH 12-14, Flumioxazin 1, Imazamox 10 g ai/ha
  % Herbicidal activity: 90%
[7]; BBCH 12-14, Flumioxazin 2, Bifenox 168 g ai/ha
  % Herbicidal activity: 98%
[8]; BBCH 12-14, Flumioxazin 4, Imazamox 10 g ai/ha
  % Herbicidal activity: 95%
[9]; BBCH 12-14, Flumioxazin 1, Bifenox 168 g ai/ha
  % Herbicidal activity: 70%
[9]; [25]
  % Herbicidal activity: 70%
[10]; BBCH 12-14, Flumioxazin 0.5, Fomesafen 123 g ai/ha
  % Herbicidal activity: 65%
[10]; [26]
  % Herbicidal activity: 65%
[10]; BBCH12-14, Flumioxazin 0.5, Pyraflufen-ethyl 1.5 g ai/ha
  % Herbicidal activity: 65%
[11]; [25]
  % Herbicidal activity: 55%
[12]; BBCH 12-14, Flumioxazin 1, Pyraflufen-ethyl 1.5 g ai/ha
  % Herbicidal activity: 60%
[12]; [27]
  % Herbicidal activity: 75%
[13]; [28]
  % Herbicidal activity: 75%
[13]; [29]
  % Herbicidal activity: 90%
[14]; BBCH 12-14, Flumioxazin 1, Fomesafen 123 g ai/ha
  % Herbicidal activity: 60%
[14]; [30]
  % Herbicidal activity: 65%
[14]; [27]
  % Herbicidal activity: 75%
[15]; [28]
  % Herbicidal activity: 70%
[16]; [31]
  % Herbicidal activity: 85%
[16]; [26]
  % Herbicidal activity: 85%
[16]; [32]
  % Herbicidal activity: 85%
[17]; [33]
  % Herbicidal activity: 45%
[17]; BBCH 12-14, Flumioxazin 4, Bifenox 168 g ai/ha
  % Herbicidal activity: 95%
[17]; [27]
  % Herbicidal activity: 80%
[18]
  % Herbicidal activity: 98%
[19]; [26]
  % Herbicidal activity: 30%
[19]; [32]
  % Herbicidal activity: 70%
[19]; [27]
  % Herbicidal activity: 65%
[20]
  % Herbicidal activity: 90%
[21]; [31]
  % Herbicidal activity: 50%
[21]; [33]
  % Herbicidal activity: 50%
[21]; [30]
  % Herbicidal activity: 50%
[22]; [34]
  % Herbicidal activity: 50%

## CC(C)N(C)S(=O)(=O)NC(=O)c1cc(-n2c(=O)cc(C(F)(F)F)n(C)c2=O)c(F)cc1Cl [Saflufenacil, 2-chloro-5-[3,6-dihydro-3-methyl-2,6-dioxo-4-(trifluoromethyl)-1-(2H)pyrimidinyl]-4-fluoro-N-[[methyl (1-methylethyl)amino]-sulfonyl]benzamide]
[1]
  % Herbicidal activity: 27%
[2]
  % Herbicidal activity: 67%
[3]
  % Herbicidal activity: 7%
[4]
  % Herbicidal activity: 37%
[5]; [23]
  % Herbicidal activity: 3%
[5]; [35]
  % Herbicidal activity: 8%
[6]; [24]
  % Herbicidal activity: 13%
[6]; [35]
  % Herbicidal activity: 20%
[7]; [36]
  % Herbicidal activity: 90%
[7]; BBCH 12-14, Saflufenacil 2, Fomesafen 1 g ai/ha
  % Herbicidal activity: 70%
[8]; [36]
  % Herbicidal activity: 80%
[8]; BBCH 12-14, Saflufenacil 1, Clethodim 30 g ai/ha
  % Herbicidal activity: 80%
[8]; [37]
  % Herbicidal activity: 80%
[8]; BBCH 12-14, Saflufenacil 1, Tribenuron-methyl 6 g ai/ha
  % Herbicidal activity: 80%
[9]; BBCH 12-14, Saflufenacil 4, Clethodim 30 g ai/ha
  % Herbicidal activity: 95%
[10]; [38]
  % Herbicidal activity: 30%
[10]; BBCH 12-14, Saflufenacil 0.5, Halauxifen 1 g ai/ha
  % Herbicidal activity: 30%
[10]; [36]
  % Herbicidal activity: 80%
[11]; BBCH 12-14, Saflufenacil 4, Fomesafen 123 g ai/ha
  % Herbicidal activity: 85%
[12]; [27]
  % Herbicidal activity: 90%
[13]; [38]
  % Herbicidal activity: 80%
[13]; [29]
  % Herbicidal activity: 80%
[14]; [38]
  % Herbicidal activity: 45%
[14]; [27]
  % Herbicidal activity: 45%
[14]; [37]
  % Herbicidal activity: 45%
[14]; BBCH 12-14, Saflufenacil 2, Halauxifen 1 g ai/ha
  % Herbicidal activity: 98%
[15]; [39]
  % Herbicidal activity: 60%
[16]; [39]
  % Herbicidal activity: 95%
[17]; [38]
  % Herbicidal activity: 75%
[17]; [27]
  % Herbicidal activity: 3%
[19]; BBCH 12-14, Saflufenacil 0.5, Imazamox 10 g ai/ha
  % Herbicidal activity: 25%
[19]; [27]
  % Herbicidal activity: 70%
[21]; [38]
  % Herbicidal activity: 98%
[22]; BBCH 12-14, Saflufenacil 4, Bifenox 168 g ai/ha
  % Herbicidal activity: 60%
[22]; [34]
  % Herbicidal activity: 60%
